Earlier results as cited in patent US6635271B1, “Method for increasing the concentration of conjugated linoleic acid in milk and/or tissue fat of a ruminant” (Valio Oy, priority 1997, dated 2003).

Details: vaccenic acid fed to mice (Santora et al. 1998)

Compound: CCCCCC/C=C\CCCCCCCCCC(=O)O [vaccenic acid, trans-11 isomer of octadecenoic acid]
- tissue fat CLA concentration: tripled
